Measurements from patent US6620828B2, “Thiazole compounds and pharmaceutical compositions for inhibiting protein kinases and methods for their use” (Agouron Pharmaceuticals, Inc., priority 1999, dated 2003).
Where a name gives a salt, the structure may show the parent alone.

System: human umbilical vein endothelial cells (HUVEC)
Experiment: HUVEC proliferation assay
Type: cell-based
Conditions: Homo sapiens, HUVEC, Table 1
How it was run: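 Readout was MTT dye reduction (A595) after 72 h of stimulation with VEGF at 6 ng/ml final. Compound, in 0.1% DMSO final, was added 1 h before VEGF to HUVEC starved 24 h in 1% FBS. % inhibition was scaled between VEGF-alone and unstimulated wells; IC50 was fitted from triplicate dose curves.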

Row | Structure (SMILES) | IC50 [µM]
1 | CNC(=O)Nc1nc(N)c(-c2nc(-c3cccc(NC(=O)c4cccc(C)c4)c3)no2)s1 [F(8), N-(3-[5-[4-Amino-2-(3-methyl-ureido)-thiazol-5-yl]-[1,2,4]oxadiazol-3-yl}-phenyl)-3-methyl-benzamide] | 0.022

Same assay, conditions: Homo sapiens, HUVEC, Table 2

Row | Structure (SMILES) | IC50 [µM]
2 | COc1cc(Nc2nc(N)c(C3=N[C@@H](Cc4ccccc4)CO3)s2)cc(OC)c1OC [I(1), S-5-(4-Benzyl-4,5-dihydro-oxazol-2-yl)-N^2-(3,4,5-trimethoxyl-pheny)-thiazole-2,4-diamine] | 61

Molecular target: T1, phosphorylated VEGF-R2Δ50 (FLVK-P) (Homo sapiens, UniProt P35968, DEL940-989/E990V)
T1 construct: VEGF-R2Δ50 contains residues 806-939 and 990-1171; made in house; host or cells: baculovirus/insect cells
Experiment: VEGF-R2 coupled spectrophotometric (FLVK-P) assay
Type: biochemical
Conditions: Table 1; at 50, concentration unit not printed (head nM)
Text: VEGF-R2 Construct for Assay: This construct determines the ability of a test compound to inhibit tyrosine kinase activity. A construct (VEGF-R2Δ50) of the cytosolic domain of human vascular endothelial growth factor receptor 2 (VEGF-R2) lacking the 50 central residues of the 68 residues of the kinase insert domain was expressed in a baculovirus/insect cell system. Of the 1356 residues of full-length VEGF-R2, VEGF-R2Δ50 contains residues 806-939 and 990-1171, and also one point mutation (E990V) within the kinase insert domain relative to wild-type VEGF-R2. Autophosphorylation of the purified construct was performed by incubation of the enzyme at a concentration of 4 μM in the presence of 3 mM ATP and 40 mM MgCl2 in 100 mM Hepes, pH 7.5, containing 5% glycerol and 5 mM DTT, at 4° C. for 2 h. […] See Parast et al., Biochemistry, 37, 16788-16801 (1998).
Coupled Spectrophotometric (FLVK-P) Assay
The production of ADP from ATP that accompanies phosphoryl transfer was coupled to oxidation of NADH using phosphoenolpyruvate (PEP) and a system having pyruvate kinase (PK) and lactic dehydrogenase (LDH). The oxidation of NADH was monitored by following the decrease of absorbance at 340 nm (e340=6.22 cm^−1 mM^−1) using a Beckman DU 650 spectrophotometer. Assay conditions for phosphorylated VEGF-R2Δ50 (indicated as FLVK-P in the tables below) were the following: 1 mM PEP; 250 μM NADH; 50 units of LDH/mL; 20 units of PK/mL; 5 mM DTT; 5.1 mM poly(E4Y1); 1 mM ATP; and 25 mM MgCl2 in 200 mM Hepes, pH 7.5. Assay conditions for unphosphorylated VEGF-R2Δ50 (indicated as FLVK in the tables) were the following: 1 mM PEP; 250 μM NADH; 50 units of LDH/mL; 20 units of PK/mL; 5 mM DTT; 20 mM poly(E4Y1); 3 mM ATP; and 60 mM MgCl2 and 2 mM MnCl2 in 200 mM Hepes, pH 7.5. Assays were initiated with 5 to 40 nM of enzyme. Ki values were determined by measuring enzyme activity in the presence of varying concentrations of test compounds. The data were analyzed using Enzyme Kinetic and Kaleidagraph software.

T1 sequence (P35968 with tags, fused parts or gaps DEL940-989/E990V limits assumed): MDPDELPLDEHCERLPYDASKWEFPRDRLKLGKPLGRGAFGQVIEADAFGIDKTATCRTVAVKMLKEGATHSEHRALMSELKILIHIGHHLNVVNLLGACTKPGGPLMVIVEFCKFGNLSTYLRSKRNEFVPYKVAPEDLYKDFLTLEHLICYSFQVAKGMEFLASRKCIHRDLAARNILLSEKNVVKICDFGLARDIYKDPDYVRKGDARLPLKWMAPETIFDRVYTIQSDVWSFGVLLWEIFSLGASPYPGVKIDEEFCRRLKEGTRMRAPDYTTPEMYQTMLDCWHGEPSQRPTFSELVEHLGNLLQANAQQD

Row | FLVK-P % inhibition @ 50 [% @] | Structure (SMILES)
3 | 27 | Nc1nc(Nc2cccnc2)sc1-c1nc(-c2cccc(NC(=O)c3cccc(Cl)c3)c2)no1 [D(52), 3-[3-(3-Chlorobenzamido)phenyl]-5-[2-(3-aminopyridyl)-4-amino-5-thiazolyl]-1,2,4-oxadiazole]
4 | 33 | CC(=O)Nc1nc(N)c(-c2nc(-c3cccc(NC(=O)c4cccc(Cl)c4)c3)no2)s1 [F(4), N-{3-[5-(2-Acetylamino-4-amino-thiazol-5-yl)-[1,2,4]oxadiazol-3-yl]-phenyl}-3-chloro-benzamide]
5 | 31 | Nc1nc(NC(=O)c2cccs2)sc1-c1nc(-c2cccc(NC(=O)c3cccc(Cl)c3)c2)no1 [F(5), Thiophene-2-carboxylic acid (4-amino-5-{3-[3-(3-chloro-benzoylamino)-phenyl]-[1,2,4]oxadiazol-5-yl}-thiazol-2-yl)-amide]
6 | 34 | CCC(=O)Nc1nc(N)c(-c2nc(-c3cccc(NC(=O)c4cccc(Cl)c4)c3)no2)s1 [F(6), N-{3-[5-(4-Amino-2-propionylamino-thiazol-5-yl)-[1,2,4]oxadiazol-3-yl]-phenyl}-3-chloro-benzamide]

Same assay, conditions: Table 1; spectrophotometric assay

Row | Ki [µM] | Structure (SMILES)
7 | 0.046 | COc1cc(Nc2nc(N)c(-c3nc(-c4cccc(NC(C)=O)c4)cs3)s2)cc(OC)c1OC [D(1), N-{3-[4′-Amino-2′-(3,4,5-trimethoxy-phenylamino)-[2,5′]bithiazolyl-4-yl]-phenyl}acetamide]
8 | 0.098 | COc1cc(Nc2nc(N)c(-c3nc(-c4cccc(NS(=O)(=O)Cc5ccccc5)c4)cs3)s2)cc(OC)c1OC [D(2), N-{3-[4′-Amino-2′-(3,4,5-trimethoxy-phenylamino)-[2,5′]bithiazolyl-4-yl]-phenyl}-C-phenyl-methanesulfonamide]
9 | 0.0019 | COc1cc(Nc2nc(N)c(-c3nc(-c4cccc(NC(=O)c5cc(Cl)ccn5)c4)cs3)s2)cc(OC)c1OC [D(11), 4-Chloro-pyridine-2-carboxylic acid {3-[4′-amino-2′-(3,4,5-trimethoxy-phenylamino)-[2,5′]bithiazolyl-4-yl]-phenyl}-amide]
10 | 0.0118 | COc1cc(Nc2nc(N)c(-c3nc(-c4cccc(NC(=O)CCc5ccccc5)c4)cs3)s2)cc(OC)c1OC [D(16), N-{3-[4′-Amino-2′-(3,4,5-trimethoxy-phenylamino)-[2,5′]bithiazolyl-4-yl]-phenyl}-3-phenyl-propionamide]
11 | 0.006 | COc1cc(Nc2nc(N)c(-c3nc(-c4cccc(NC(=O)c5ccc(F)cc5)c4)cs3)s2)cc(OC)c1OC [D(28), N-{3-[4′-Amino-2′-(3,4,5-trimethoxy-phenylamino)-[2,5′]bithiazolyl-4-yl]-phenyl}-4-fluoro-benzamide]
12 | 0.0048 | COc1cc(Nc2nc(N)c(-c3nc(-c4cccc(NC(=O)c5ccc(C)c(C)c5)c4)cs3)s2)cc(OC)c1OC [D(31), N-{3-[4′-Amino-2′-(3,4,5-trimethoxy-phenylamino)-[2,5′]bithiazolyl-4-yl]-phenyl}-3,4-dimethyl-benzamide]
13 | 0.0025 | COc1cc(Nc2nc(N)c(-c3nc(-c4cccc(NC(=O)c5cnc(C)s5)c4)cs3)s2)cc(OC)c1OC [D(53), 2-Methyl-thiazole-5-carboxylic acid {3-[4′-amino-2′-(3,4,5-trimethoxy-phenylamino)-[2,5′]bithiazolyl-4-yl]-phenyl}-amide]
14 | 0.0063 | COc1cc(Nc2nc(N)c(-c3nc(-c4cccc(NC(=O)c5cccc(Cl)n5)c4)cs3)s2)cc(OC)c1OC [D(54), 6-Chloro-pyridine-2-carboxylic acid {3-[4′-amino-2′-(3,4,5-trimethoxy-phenylamino)-[2,5′]bithiazolyl-4-yl]-phenyl}-amide]
15 | 0.0063 | COc1cc(Nc2nc(N)c(-c3nc(-c4cccc(NC(=O)c5ccnc(Cl)c5)c4)cs3)s2)cc(OC)c1OC [D(55), N-{3-[4′-Amino-2′-(3,4,5-trimethoxy-phenylamino)-[2,5′]bithiazolyl-4 yl]-phenyl}-2-chloro-isonicotinamide]
16 | 0.00081 | COc1cc(Nc2nc(N)c(-c3nc(-c4cccc(NC(=O)c5cc(C)cc(C)c5)c4)no3)s2)cc(OC)c1OC [D(56), N-(3-{5-[4-Amino-2-(3,4,5-trimethoxy-phenylamino)-thiazol-5-yl]-[1,2,4]oxadiazol-3-yl}-phenyl)-3,5-dimethyl-benzamide trifluoroacetate salt]
17 | 0.018 | COc1cc(Nc2nc(N)c(-c3nc(-c4cccc(NC(=O)c5ccccc5C)c4)no3)s2)cc(OC)c1OC [D(57), N-(3-{5-[4-Amino-2-(3,4,5-trimethoxy-phenylamino)-thiazol-5-yl]-[1,2,4]oxadiazol-3-yl}-phenyl)-2-methyl-benzamide trifluoroacetate salt]
18 | 0.08 | COC(=O)Nc1nc(N)c(-c2nc(-c3cccc(NC(=O)c4ccc(Cl)s4)c3)cs2)s1 [F(3), (4′-Amino-4-{3-[(5-chloro-thiophene-2-carbonyl)-amino]-phenyl}-[2,5′]bithiazolyl-2′-yl)-carbamic acid methyl ester]
19 | 0.114 | Nc1nc(NC(=O)c2ccccc2)sc1-c1nc(-c2cccc(NC(=O)c3cccc(Cl)c3)c2)no1 [F(7), N-{3-[5-(4-amino-2-benzoylamino-thiazol-5-yl)-[1,2,4]oxadiazol-3-yl]-phenyl}-3-chloro-benzamide]
20 | 0.0019 | CNC(=O)Nc1nc(N)c(-c2nc(-c3cccc(NC(=O)c4cccc(C)c4)c3)no2)s1 [F(8), N-(3-[5-[4-Amino-2-(3-methyl-ureido)-thiazol-5-yl]-[1,2,4]oxadiazol-3-yl}-phenyl)-3-methyl-benzamide]

Same assay, conditions: Table 2; at 100 μM

Row | inhibition at 100 µM [%] | Structure (SMILES)
21 | 46 | COc1cc(Nc2nc(N)c(C3=NC(c4ccc5ccccc5c4)CO3)s2)cc(OC)c1OC (centres unmarked) [I(20)]

Same assay, conditions: Table 2; spectrophotometric assay

Row | Ki [µM] | Structure (SMILES)
22 | > 100 | COc1cc(Nc2nc(N)c(C3=N[C@@H](Cc4ccccc4)CO3)s2)cc(OC)c1OC [I(1), S-5-(4-Benzyl-4,5-dihydro-oxazol-2-yl)-N^2-(3,4,5-trimethoxyl-pheny)-thiazole-2,4-diamine]
23 | 0.083 | COc1cc(Nc2nc(N)c(C3=NC(c4cccc(O)c4)CO3)s2)cc(OC)c1OC (centres unmarked) [I(9), S-3-{2-[4-Amino-2-(3,4,5-trimethoxy-phenylamino)-thiazol-5-yl]-4,5-dihydro-oxazol-4-yl}-phenol]
24 | 0.53 | COc1cc(Nc2nc(N)c(C3=NC(c4ccc(O)cc4)CO3)s2)cc(OC)c1OC (centres unmarked) [I(11), S-4-{2-[4-Amino-2-(3,4,5-trimethoxy-phenylamino)-thiazol-5-yl]-4,5-dihydro-oxazol-4-yl}-phenol]

Same assay, conditions: Table 3; at 1 μM

Row | inhibition at 1 µM [%] | Structure (SMILES)
25 | 31 | CC(C)(C)OC(=O)Nc1cccc(-c2noc(-c3sc(Nc4cccc(C#N)c4)nc3N)n2)c1 [B(40)]
26 | 9 | N#Cc1cccc(Nc2nc(N)c(-c3nc(-c4cccc(NC(=O)c5cccc(Cl)c5)c4)no3)s2)c1 [D(78)]
